Assay results as given in patent US10307413B2, “Tetrahydro- and dihydro-isoquinoline PRMT5 inhibitors and uses thereof” (Epizyme, Inc., priority 2013, dated 2019).
Like-named read-outs stand apart in the source and are kept apart here.

How the values were obtained:
PRMT5/MEP50 = PRMT5/MEP50 (Homo sapiens (Human), UniProt O14744); assay: PRMT5 Biochemical Assay (PRMT5/MEP50 enzyme assay on peptide substrate, 3H-SAM Flashplate)
Source text: S-adenosylmethionine (SAM), S-adenosylhomocysteine (SAH), bicine, KCl, Tween20, dimethylsulfoxide (DMSO), bovine skin gelatin (BSG), and Tris(2-carboxyethyl)phosphine hydrochloride solution (TCEP) were purchased from Sigma-Aldrich at the highest level of purity possible. ^3H-SAM was purchase from American Radiolabeled Chemicals with a specific activity of 80 Ci/mmol. 384-well streptavidin Flashplates were purchased from PerkinElmer.
Peptide representative of human histone H4 residues 1-15 was synthesized with a C-terminal linker-affinity tag motif and a C-terminal amide cap by 21st Century Biochemicals.
The amplified genes were sublconed into pENTR/D/TEV (Life Technologies) and subsequently transferred by Gateway™ attL×attR recombination to pDEST8 baculovirus expression vector (Life Technologies).
Protein over-expression was accomplished by infecting exponentially growing Spodoptera frugiperda (SF9) cell culture at 1.2×10^6 cell/ml with a 5000 fold dilution of BIIC stock. Infections were carried out at 27° C. for 72 hours, harvested by centrifugation, and stored at −80° C. for purification.
Flag-PRMT5/6His-MeP50 was eluted with 300 mM Imidazole in the same buffer.
General Procedure for PRMT5/MEP50 Enzyme Assays on Peptide Substrates.
The assays were all performed in a buffer consisting of 20 mM Bicine (pH=7.6), 1 mM TCEP, 0.005% BSG, and 0.002% Tween20, prepared on the day of use. […] DMSO (1 ul) was added to Columns 11, 12, 23, 24, rows A-H for the maximum signal control and 1 ul of SAH, a known product and inhibitor of PRMT5/MEP50, was added to columns 11, 12, 23, 24, rows I-P for the minimum signal control. A cocktail (40 ul) containing the PRMT5/MEP50 enzyme and the peptide was added by Multidrop Combi (Thermo-Fisher). The compounds were allowed to incubate with PRMT5/MEP50 for 30 min at 25 degrees Celsius, then a cocktail (10 ul) containing ^3H-SAM was added to initiate the reaction (final volume=51 ul). […] The assays were stopped by the addition of non-radioactive SAM (10 ul) to a final concentration of 600 uM, which dilutes the ^3H-SAM to a level where its incorporation into the peptide substrate is no longer detectable. 50 ul of the reaction in the 384-well polypropylene plate was then transferred to a 384-well Flashplate and the biotinylated peptides were allowed to bind to the streptavidin surface for at least 1 hour before being washed three times with 0.1% Tween20 in a Biotek ELx405 plate washer. The plates were then read in a PerkinElmer TopCount plate reader to measure the quantity of ^3H-labeled peptide bound to the Flashplate surface, measured as disintegrations per minute (dpm) or alternatively, referred to as counts per minute (cpm).
[formula] [formula] Where dpm=disintegrations per minute, cmpd=signal in assay well, and min and max are the respective minimum and maximum signal controls.
[formula] [formula] Where top and bottom are the normally allowed to float, but may be fixed at 100 or 0 respectively in a 3-parameter fit. The Hill Coefficient normally allowed to float but may also be fixed at 1 in a 3-parameter fit. Y is the % inhibition and X is the compound concentration.

[1] = test system: symmetric di-methyl arginine in Z-138 cells; assay: Z-138 Methylation Assay (In Cell Western for symmetric di-methyl arginine and DNA content); type: cell-based; details: Homo sapiens, read-out: ICW EC50
Method in brief: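 Z-138 cells (50,000 cells/mL) treated with compound 96 h at 37 °C, then fixed and stained for symmetric di-methyl arginine (800 nm) with DRAQ5 DNA counterstain (700 nm) on Licor Odyssey.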

Z-138 cell line = assay: Z-138 Proliferation Assay (Cell Titer Glo, 5 days); type: cell-based; details: Homo sapiens, 120 h, Z-138 cells, 5 days, read-out: Proliferation EC50
Method in brief: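 Z-138 cells exposed 5 days at 37 °C, 5% CO2 to nine-point 3-fold dilutions (final top 20 μM, 0.2% DMSO), in triplicate. Viability read as ATP by CellTiter-Glo luminescence; IC50 from 4-parameter fit of normalized dose-response curves.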

PRMT5/MEP50, sequence (O14744 other isoform, or with tags, fused parts or gaps): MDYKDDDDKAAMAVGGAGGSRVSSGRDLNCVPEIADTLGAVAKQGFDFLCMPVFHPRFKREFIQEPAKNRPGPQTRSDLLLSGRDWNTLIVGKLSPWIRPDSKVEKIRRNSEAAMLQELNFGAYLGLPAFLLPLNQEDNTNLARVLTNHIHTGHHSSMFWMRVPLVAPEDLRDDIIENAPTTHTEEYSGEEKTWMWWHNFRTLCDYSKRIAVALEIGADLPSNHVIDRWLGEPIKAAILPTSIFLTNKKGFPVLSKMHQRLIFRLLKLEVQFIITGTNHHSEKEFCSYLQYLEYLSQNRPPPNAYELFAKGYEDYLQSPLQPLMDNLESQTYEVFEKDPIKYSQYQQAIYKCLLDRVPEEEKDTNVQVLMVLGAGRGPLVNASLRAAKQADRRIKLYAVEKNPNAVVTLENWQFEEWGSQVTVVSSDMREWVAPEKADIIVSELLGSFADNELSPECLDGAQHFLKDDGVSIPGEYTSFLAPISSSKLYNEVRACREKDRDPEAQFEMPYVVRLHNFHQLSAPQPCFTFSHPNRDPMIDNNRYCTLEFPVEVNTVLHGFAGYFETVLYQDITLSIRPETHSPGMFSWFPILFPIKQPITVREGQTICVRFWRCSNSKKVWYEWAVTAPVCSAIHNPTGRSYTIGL
PRMT5/MEP50, sequence (Q9BQA1 other isoform, or with tags, fused parts or gaps partner): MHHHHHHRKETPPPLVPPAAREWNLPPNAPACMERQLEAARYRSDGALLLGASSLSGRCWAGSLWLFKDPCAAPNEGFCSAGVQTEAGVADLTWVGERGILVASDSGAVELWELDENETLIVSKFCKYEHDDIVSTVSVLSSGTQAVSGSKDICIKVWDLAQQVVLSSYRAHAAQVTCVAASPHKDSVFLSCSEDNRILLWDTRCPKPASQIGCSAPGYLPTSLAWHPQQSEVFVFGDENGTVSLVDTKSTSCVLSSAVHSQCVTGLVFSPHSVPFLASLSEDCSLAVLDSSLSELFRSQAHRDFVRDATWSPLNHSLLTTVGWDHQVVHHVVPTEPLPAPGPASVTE

Row | Compound | EC50 [1] [nM] | EC50 (Z-138 cell line) [nM] | other results
1 | CS(=O)(=O)Nc1ccccc1C(=O)NCC(O)CN1CCc2ccccc2C1 (centres unmarked) [Compound 27] |  |  | IC50 (PRMT5/MEP50): 1000 to 10000 nM
2 | NS(=O)(=O)c1ccccc1C(=O)NCC(O)CN1CCc2ccccc2C1 (centres unmarked) [Compound 33] |  |  | IC50 (PRMT5/MEP50): 1000 to 10000 nM
3 | O=C(NCC(O)CN1CCc2ccccc2C1)c1cccc(C(=O)N2CCOCC2)c1 (centres unmarked) [Compound 46, N-(3-(3,4-dihydroisoquinolin-2(1H)-yl)-2-hydroxypropyl)-3-(morpholine-4-carbonyl)benzamide] |  |  | IC50 (PRMT5/MEP50): 1000 to 10000 nM
4 | CCN(c1cccc(C(=O)NCC(O)CN2CCc3ccccc3C2)c1)C1CCOCC1 (centres unmarked) [Compound 47] | 101 to 1000 |  | IC50 (PRMT5/MEP50): 101 to 1000 nM
5 | O=C(NCC(O)CN1CCc2ccccc2C1)c1cccc(OC2CCOCC2)c1 (centres unmarked) [Compound 48] | 101 to 1000 |  | IC50 (PRMT5/MEP50): 101 to 1000 nM
6 | CN(c1cccc(C(=O)NCC(O)CN2CCc3ccccc3C2)c1)C1CCOCC1 (centres unmarked) [Compound 49, N-(3-(3,4-dihydroisoquinolin-2(1H)-yl)-2-hydroxypropyl)-3-(methyl(tetrahydro-2H-pyran-4-yl)amino)benzamide] |  |  | IC50 (PRMT5/MEP50): 101 to 1000 nM
7 | O=C(NCC(O)CN1CCc2ccccc2C1)c1cccc(NC2COC2)c1 (centres unmarked) [Compound 50, N-(3-(3,4-dihydroisoquinolin-2(1H)-yl)-2-hydroxypropyl)-3-(oxetan-3-ylamino)benzamide] |  |  | IC50 (PRMT5/MEP50): 101 to 1000 nM
8 | O=C(NCC(O)CN1CCc2ccccc2C1)c1cccc(CN2CCOCC2)c1 (centres unmarked) [Compound 51, N-(3-(3,4-dihydroisoquinolin-2(1H)-yl)-2-hydroxypropyl)-3-(morpholinomethyl)benzamide] |  |  | IC50 (PRMT5/MEP50): 101 to 1000 nM
9 | CC(Nc1cccc(C(=O)NCC(O)CN2CCc3ccccc3C2)c1)C1CCOCC1 (centres unmarked) [Compound 52, N-(3-(3,4-dihydroisoquinolin-2(1H)-yl)-2-hydroxypropyl)-3-((1-(tetrahydro-2H-pyran-4-yl)ethyl)amino)benzamide] |  |  | IC50 (PRMT5/MEP50): 101 to 1000 nM
10 | CC1(C)CC(Nc2cccc(C(=O)NCC(O)CN3CCc4ccccc4C3)c2)CCO1 (centres unmarked) [Compound 53, N-(3-(3,4-dihydroisoquinolin-2(1H)-yl)-2-hydroxypropyl)-3-((2,2-dimethyltetrahydro-2H-pyran-4-yl)amino)benzamide] |  |  | IC50 (PRMT5/MEP50): 101 to 1000 nM
11 | COc1cc(NC2CCOCC2)cc(C(=O)NCC(O)CN2CCc3ccccc3C2)c1 (centres unmarked) [Compound 56] |  |  | IC50 (PRMT5/MEP50): 101 to 1000 nM
12 | O=C(NCC(O)CN1CCc2ccccc2C1)c1cc(NC2CCOCC2)ccc1F (centres unmarked) [Compound 57, N-(3-(3,4-dihydroisoquinolin-2(1H)-yl)-2-hydroxypropyl)-2-fluoro-5-((tetrahydro-2H-pyran-4-yl)amino)benzamide] |  |  | IC50 (PRMT5/MEP50): 101 to 1000 nM
13 | CC(=O)N(C)CCNc1cc(C(=O)NC[C@H](O)CN2CCc3ccccc3C2)ccn1 [Compound 315] | < 100 | 101 to 1000 | 
14 | O=C(NC[C@H](O)CN1CCc2ccccc2C1)c1ccnc(NCCNCC(F)(F)F)c1 [Compound 316] | < 100 | 1000 to 10000 | 
15 | O=C(NC[C@H](O)CN1CCc2ccccc2C1)c1cnc2ccccc2c1 [Compound 317] | < 100 | 101 to 1000 | 
16 | O=C(NC[C@H](O)CN1CCc2ccccc2C1)c1ccc2cc(O)ccc2c1 [Compound 318] | 101 to 1000 | 1000 to 10000 | 
17 | O=C(NC[C@H](O)CN1CCc2ccccc2C1)c1nc2cc(Br)ccc2[nH]1 [Compound 319] | < 100 | 1000 to 10000 | 
18 | NCCNc1cc(C(=O)NC[C@H](O)CN2CCc3ccccc3C2)ccn1 [Compound 320] | 101 to 1000 | 1000 to 10000 | 
19 | O=C(NC[C@H](O)CN1CCc2ccccc2C1)c1ccc(OC2CCN(CCO)CC2)cc1 [Compound 321] | < 100 | 101 to 1000 | 
20 | CC(C)(C)C(=O)N1CCC(Oc2ccc(C(=O)NC[C@H](O)CN3CCc4ccccc4C3)cc2)CC1 [Compound 322] | < 100 | 101 to 1000 | 
21 | O=C(NC[C@H](O)CN1CCc2ccccc2C1)c1ccnc(OC2CCOCC2)c1 [Compound 323] | < 100 | 101 to 1000 | 
22 | CN(c1cc(C(=O)NC[C@H](O)CN2CCc3ccccc3C2)ccn1)C1CCOCC1 [Compound 324] | < 100 | 101 to 1000 | 
23 | Cn1nccc1Nc1cc(C(=O)NC[C@H](O)CN2CCc3ccccc3C2)ccn1 [Compound 325] | < 100 | 101 to 1000 | 

Row | Compound | EC50 [1] [nM] | EC50 (Z-138 cell line) [nM] | other results
24 | CC(C)(C)c1cc(Nc2cc(C(=O)NC[C@H](O)CN3CCc4ccccc4C3)ccn2)n[nH]1 [Compound 326] | < 100 | 101 to 1000 | 
25 | O=C(NC[C@H](O)CN1CCc2ccccc2C1)c1c(O)ccc2ccccc12 [Compound 327] | 101 to 1000 | > 20000 | 
26 | O=C(NC[C@H](O)CN1CCc2ccccc2C1)c1ccc2c(c1O)NCCC2 [Compound 328] | > 1000 | > 20000 | 
27 | COCCN1CCC(Oc2ccc(C(=O)NC[C@H](O)CN3CCc4ccccc4C3)cc2)CC1 [Compound 329] | < 100 | 101 to 1000 | 
28 | O=C(NC[C@H](O)CN1CCc2ccccc2C1)c1ccc(OC2CCN(Cc3ccccc3)CC2)cc1 [Compound 330] | < 100 | < 100 | 
29 | O=C(NC[C@H](O)CN1CCc2ccccc2C1)c1ccc(OC2CCN(Cc3ccncc3)CC2)cc1 [Compound 331] | < 100 | < 100 | 
30 | COc1cc(C(=O)NC[C@H](O)CN2CCc3ccccc3C2)cc(NC2CCC2)n1 [Compound 332] | < 100 | < 100 | 
31 | CN(c1cc(C(=O)NC[C@H](O)CN2CCc3ccccc3C2)ccn1)C1CCC1 [Compound 333] | < 100 | 101 to 1000 | 
32 | O=C(NC[C@H](O)CN1CCc2ccccc2C1)c1ccnc(NC2CCCC2)c1 [Compound 334] | < 100 | < 100 | 
33 | O=C(NC[C@H](O)CN1CCc2ccccc2C1)c1ccnc(NC2CCCCC2)c1 [Compound 335] | < 100 | < 100 | 
34 | O=C(NC[C@@H](O)CN1CCc2ccccc2C1)c1cc(NC2COC2)ncn1 [Compound 336] | 101 to 1000 | 10000 to 50000 | 
35 | [2H]C1([2H])Cc2ccccc2C([2H])([2H])N1C[C@@H](O)CNC(=O)c1cc(NC2COC2)ncn1 [Compound 337] | < 100 | 101 to 1000 | 
36 | COc1c(NC2COC2)ncnc1C(=O)NC[C@H](O)CN1CCc2ccccc2C1 [Compound 338] |  |  | IC50 (PRMT5/MEP50): 1000 to 10000 nM
37 | O=C(NC[C@H](O)CN1CCc2ccccc2C1)c1ccnc(Nc2ccncc2)c1 [Compound 412] |  |  | EC50 (Z-138 cell line; Cell Titer Glo): 101 to 1000 nM; EC50 ([1]; In Cell Western methylation): < 100 nM
38 | CC(NC(=O)c1cc(NC2COC2)ncn1)[C@H](O)CN1CCc2ccccc2C1 (some centres unmarked) [Compound 493] |  |  | IC50 (PRMT5/MEP50; PRMT5 biochemical assay): 1000 to 10000 nM; EC50 ([1]; In Cell Western methylation): > 1000 nM
39 | CC(=O)N1CCC(Nc2cc(C(=O)NC[C@H](O)CN3Cc4ccccc4C(O)C3)ccn2)CC1 (some centres unmarked) [Compound 680] |  |  | IC50 (PRMT5/MEP50; PRMT5 biochemical assay): > 10000 nM; EC50 ([1]; In Cell Western methylation): > 1000 nM
40 | CC(=O)N1CCC(Nc2cc(C(=O)NC[C@@H](O)CN3CCc4ccccc4C3)ncn2)CC1 [Compound 687] |  |  | EC50 (Z-138 cell line; Cell Titer Glo): 101 to 1000 nM; EC50 ([1]; In Cell Western methylation): < 100 nM
41 | CC(=O)N1CCC(Nc2cc(C(=O)NC[C@H](O)CN3Cc4ccccc4C(C)C3)ccn2)CC1 (some centres unmarked) [Compound 695] |  |  | IC50 (PRMT5/MEP50; PRMT5 biochemical assay): > 10000 nM; EC50 ([1]; In Cell Western methylation): > 1000 nM
42 | CC(=O)N1CCC(Nc2cc(C(=O)NC[C@H](O)CN3Cc4ccccc4CC3C)ccn2)CC1 (some centres unmarked) [Compound 696] |  |  | IC50 (PRMT5/MEP50; PRMT5 biochemical assay): 1000 to 10000 nM; EC50 ([1]; In Cell Western methylation): 101 to 1000 nM
43 | O=C(NCC(F)CN1CCc2ccccc2C1)c1cc(NC2COC2)ncn1 (centres unmarked) [Compound 697] |  |  | IC50 (PRMT5/MEP50; PRMT5 biochemical assay): 1000 to 10000 nM; EC50 ([1]; In Cell Western methylation): > 1000 nM
44 | CC(=O)N1CC(Nc2cc(C(=O)NCC(N)CN3CCc4ccccc4C3)ncn2)C1 (centres unmarked) [Compound 699] |  |  | IC50 (PRMT5/MEP50; PRMT5 biochemical assay): 101 to 1000 nM
45 | CC(=O)N1CCC(Nc2cc(C(=O)NCC(N)CN3CCc4ccccc4C3)ncn2)CC1 (centres unmarked) [Compound 701] |  |  | IC50 (PRMT5/MEP50; PRMT5 biochemical assay): 101 to 1000 nM
